What follows are compounds tested against human CTPS1 (Homo sapiens (Human), UniProt P17812) (assay: hCTPS1 biochemical assay (ADP-Glo)). Conditions: hCTPS1 25 nM, ATP 120 uM, UTP 160 uM, GTP 60 uM, L-Glutamine 100 uM, 25 degrees C.
human CTPS1, sequence (P17812 whole entry): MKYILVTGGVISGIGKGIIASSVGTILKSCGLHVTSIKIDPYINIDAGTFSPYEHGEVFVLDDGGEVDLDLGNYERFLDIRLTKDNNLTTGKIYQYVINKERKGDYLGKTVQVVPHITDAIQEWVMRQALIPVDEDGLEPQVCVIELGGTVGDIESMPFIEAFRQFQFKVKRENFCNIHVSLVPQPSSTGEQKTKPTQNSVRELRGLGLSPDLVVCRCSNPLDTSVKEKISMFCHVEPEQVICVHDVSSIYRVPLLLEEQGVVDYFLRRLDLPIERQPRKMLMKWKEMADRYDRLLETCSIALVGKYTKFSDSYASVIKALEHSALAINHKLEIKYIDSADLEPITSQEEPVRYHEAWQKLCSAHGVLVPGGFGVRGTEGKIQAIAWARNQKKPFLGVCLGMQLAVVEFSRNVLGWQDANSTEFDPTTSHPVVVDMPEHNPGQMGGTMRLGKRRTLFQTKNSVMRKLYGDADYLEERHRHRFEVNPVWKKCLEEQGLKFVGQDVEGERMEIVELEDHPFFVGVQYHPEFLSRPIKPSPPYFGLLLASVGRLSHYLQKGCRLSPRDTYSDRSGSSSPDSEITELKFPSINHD

Row | Structure (SMILES) | IC50 [nM]
1 | O=C(NC1(c2csc(NS(=O)(=O)C3CC3)n2)CC1)c1ccc2ccccc2n1 [I-2, N-(1-(2-(cyclopropanesulfonamido)thiazol-4-yl)cyclopropyl)quinoline-2-carboxamide] | ≥ 1000
2 | CCOc1cncc(-c2ccc(C(=O)NCc3nc(NS(=O)(=O)C4CC4)cs3)nc2)n1 [I-195, N-[(4-cyclopropanesulfonamido-1,3-thiazol-2-yl)methyl]-5-(6-ethoxypyrazin-2-yl)pyridine-2-carboxamide] | 100 to 1000
3 | O=C(NCc1cc(NS(=O)(=O)C2CC2)ccn1)c1ncc(-c2cncc(C(F)(F)F)c2)s1 [I-251, N-((4-(cyclopropanesulfonamido)pyridin-2-yl)methyl)-5-(5-(trifluoromethyl)pyridin-3-yl)thiazole-2-carboxamide] | 100 to 1000
4 | O=C(NC1(c2csc(NS(=O)(=O)C3CC3)n2)CC1)c1ccc2cccnc2c1 [I-10, N-(1-(2-(cyclopropanesulfonamido)thiazol-4-yl)cyclopropyl)quinoline-7-carboxamide] | ≥ 1000
5 | CCOc1cncc(-c2ccc(C(=O)N3CCC[C@@H]3c3cc(NS(=O)(=O)C4CC4)ccn3)cc2)n1 [I-77, (R)—N-(2-(1-(4-(6-ethoxypyrazin-2-yl)benzoyl)pyrrolidin-2-yl)pyridin-4-yl)cyclopropanesulfonamide] | 100 to 1000
6 | CCOc1cncc(-c2ccc(C(=O)NC3(c4cccc5c4ccn5S(=O)(=O)C4CC4)CC3)nc2)n1 [I-20, N-(1-(1-(cyclopropylsulfonyl)-1H-indol-4-yl)cyclopropyl)-5-(6-ethoxypyrazin-2-yl)picolinamide] | ≥ 1000
7 | CCOc1cncc(-c2ccc3c(c2)CN(C(CC)c2csc(NS(=O)(=O)C4CC4)n2)C3=O)n1 (stereo in doubt) [I-12a, (S)—N-(4-(1-(5-(6-ethoxypyrazin-2-yl)-1-oxoisoindolin-2-yl)propyl)thiazol-2-yl)cyclopropanesulfonamide] | 100 to 1000
8 | CCOc1cncc(-c2ncc(C(=O)N3CCC[C@@H]3c3cc(NS(=O)(=O)C4CC4)ccn3)s2)n1 [I-76, N-[2-[(2R)-1-[2-(6-ethoxypyrazin-2-yl)-1,3-thiazole-5-carbonyl]pyrrolidin-2-yl]pyridin-4-yl]cyclopropanesulfonamide] | 100 to 1000
9 | CCOc1cncc(-c2cnc(C(=O)N3CCNC[C@H]3c3cc(NS(=O)(=O)C4CC4)ccn3)s2)n1 [I-211, (S)—N-(2-(1-(5-(6-ethoxypyrazin-2-yl)thiazole-2-carbonyl)piperazin-2-yl)pyridin-4-yl)cyclopropanesulfonamide] | 100 to 1000
10 | CCC(NC(=O)c1ncc(-c2cnn3ccc(Cl)cc23)s1)c1cc(NS(=O)(=O)C2CC2)ccn1 (stereo not drawn) [I-174] | < 100
11 | CC[C@H]1CCN(c2ncc(C(=O)NCc3cc(NS(=O)(=O)C4CC4)ccn3)nc2C)C1 [I-81] | ≥ 1000
12 | CCOc1cncc(-c2cnc(C(=O)NC(CN3CCOCC3(C)C)c3cc(NS(=O)(=O)C4CC4)ccn3)s2)n1 (stereo not drawn) [I-122] | < 100
13 | CCOc1cncc(-c2cnc(C(=O)N[C@@H](C[C@@H]3CCCCN3C)c3cc(NS(=O)(=O)C4CC4)ccn3)s2)n1 (single isomer, unassigned) [I-134] | 100 to 1000

Second part, the compound after the results:

Row | IC50 [nM] | Structure (SMILES)
14 | < 100 | CCOc1cncc(-c2sc(C(=O)N[C@H](CC)c3cc(NS(=O)(=O)C4CC4)ccn3)nc2C)n1 [I-220, (R)—N-(1-(4-(cyclopropanesulfonamido)pyridin-2-yl)propyl)-5-(6-ethoxypyrazin-2-yl)-4-methylthiazole-2-carboxamide]
15 | < 100 | CCOc1cncc(-c2cnc(C(=O)N[C@@H](CN3CCNCC3)c3cc(NS(=O)(=O)C4CC4)ccn3)s2)n1 [I-206, (S)—N-(1-(4-(cyclopropanesulfonamido)pyridin-2-yl)-2-(piperazin-1-yl)ethyl)-5-(6-ethoxypyrazin-2-yl)thiazole-2-carboxamide]
16 | < 100 | CCOc1cncc(-c2cnc(C(=O)N3CCC[C@H]3c3ccnc(NS(=O)(=O)C4CC4)n3)s2)n1 [I-271, N-[4-[(2S)-1-[5-(6-ethoxypyrazin-2-yl)-1,3-thiazole-2-carbonyl]pyrrolidin-2-yl]pyrimidin-2-yl]cyclopropanesulfonamide]
17 | < 100 | CCOc1cncc(-c2cnc(C(=O)N[C@@H](CN3CCOCC3(C)C)c3cc(NS(=O)(=O)C4CC4)ccn3)s2)n1 (single isomer, unassigned) [I-116]
18 | < 100 | CCOc1cncc(-c2ccc(C(=O)NCc3cc(NS(=O)(=O)C(F)F)ccn3)nc2)n1 [I-30, N-[[4-(difluoromethanesulfonamido)pyridin-2-yl]methyl]-5-(6-ethoxypyrazin-2-yl) pyridine-2-carboxamide]
19 | < 100 | CCOC[C@H](NC(=O)c1ncc(-c2cncc(OCC)n2)s1)c1cc(NS(=O)(=O)C2CC2)ccn1 [I-96, (R)—N-(1-(4-(cyclopropanesulfonamido)pyridin-2-yl)-2-ethoxyethyl)-5-(6-ethoxypyrazin-2-yl)thiazole-2-carboxamide]
20 | < 100 | CCOc1cncc(-c2cnc(C(=O)N[C@@H](c3cc(NS(=O)(=O)C4CC4)ccn3)[C@H]3C[C@@H](N(C)C)C3)s2)n1 (single isomer, unassigned) [I-108]
21 | < 100 | CCOc1cncc(-c2ccc(C(=O)NCc3cncc(NS(=O)(=O)C4CC4)c3)cc2)n1 [I-36]
22 | < 100 | CCOc1cncc(-c2nnc(C(=O)N[C@@H](CC)c3cc(NS(=O)(=O)C4CC4)ccn3)s2)n1 [I-239]
23 | < 100 | CCOc1cncc(-c2cnc(C(=O)NC(CN(C)C)c3cc(NS(=O)(=O)C4CC4)ccn3)s2)n1 (stereo not drawn) [I-241]
24 | < 100 | CCOc1cncc(-c2cnc(C(=O)N[C@@H](c3cc(NS(=O)(=O)C4CC4)ccn3)[C@@H]3CCOC3)s2)n1 (single isomer, unassigned) [I-93]
25 | < 100 | CCOc1cncc(-c2ccc3c(c2)CN(C(CC)c2csc(NS(=O)(=O)C4CC4)n2)C3=O)n1 (stereo not drawn) [I-6, N-(4-(1-(5-(6-ethoxypyrazin-2-yl)-1-oxoisoindolin-2-yl)propyl)thiazol-2-yl)cyclopropanesulfonamide]
26 | < 100 | CCOc1cncc(-c2cnc(C(=O)N[C@@H](c3cc(NS(=O)(=O)C4CC4)ccn3)C3CCN(C)CC3)s2)n1 [I-147, (R)—N-((4-(cyclopropanesulfonamido)pyridin-2-yl)(1-methylpiperidin-4-yl)methyl)-5-(6-ethoxypyrazin-2-yl)thiazole-2-carboxamide]
27 | < 100 | CCOc1cncc(-c2cnc(C(=O)NC(CN3CCC3)c3cc(NS(=O)(=O)C4CC4)ccn3)s2)n1 (stereo not drawn) [I-228]
28 | < 100 | CCOc1cncc(-c2cnc(C(=O)N[C@@H](CN3CCCCC3)c3cc(NS(=O)(=O)C4CC4)ccn3)s2)n1 (single isomer, unassigned) [I-214]
29 | < 100 | CCOc1cncc(-c2cnc(C(=O)NC(CCN3CC[C@H](F)C3)c3cc(NS(=O)(=O)C4CC4)ccn3)s2)n1 (stereo partly drawn) [I-130, N-(1-(4-(cyclopropanesulfonamido)pyridin-2-yl)-3-((S)-3-fluoropyrrolidin-1-yl)propyl)-5-(6-ethoxypyrazin-2-yl)thiazole-2-carboxamide]
30 | < 100 | CCOc1cncc(-c2cnc(C(=O)N[C@@H](CCN3CCCCC3)c3cc(NS(=O)(=O)C4CC4)ccn3)s2)n1 [I-161, (S)—N-(1-(4-(cyclopropanesulfonamido)pyridin-2-yl)-3-(piperidin-1-yl)propyl)-5-(6-ethoxypyrazin-2-yl)thiazole-2-carboxamide]
